In series [1] the test system is weeds. Briefly: Post-emergence test (Example B), activity against weeds. It counts as in vivo. The note with it: test plants 5-15 cm sprayed; damage rated after three weeks. The protocol:
(§1) To produce a suitable preparation of active compound, 1 part by weight of active compound is mixed with the stated amount of solvent, the stated amount of emulsifier is added and the concentrate is diluted with water to the desired concentration.
Test plants with a height of 5-15 cm are sprayed with the preparation of active compound such that the particular amounts of active compound desired are applied per unit area. The concentration of the spray liquor is chosen so that the particular amounts of active compound desired are applied in 1000 l of water/ha.
After three weeks, the degree of damage to the plants is rated in % damage in comparison to the development of the untreated control.
The figures denote: • 0%=no effect (like untreated control) • 100%=total destruction

Series [2] has as its system weeds. Kind of series: Pre-emergence test (Example A), activity against weeds. It counts as in vivo. The settings on record: soil sprayed 24 hours after sowing; damage rated after three weeks. The protocol: as §1
Seeds of the test plants are sown in normal soil. After 24 hours, the soil is sprayed with the preparation of active compound such that the particular amount of active compound desired is applied per unit area. The concentration of active compound in the spray liquor is chosen such that the particular amount of active compound desired is applied in 1000 liters of water per hectare.
After three weeks, the degree of damage to the plants is rated in % damage in comparison to the development of the untreated control. The figures denote: • 0%=no effect (like untreated control) • 100%=total destruction

The nature of series [3]: log P determination by HPLC on reversed-phase column (C 18), EEC Directive 79/831 V.A8. It counts as physicochemical. The note with it: for logP (Physical data, Table 1): labelled a): acidic range, 0.1% aqueous phosphoric acid/acetonitrile gradient, 43° C. The protocol:
The log P values given in Table 1 were determined in accordance with EEC Directive 79/831 V.A8 by HPLC (High Performance Liquid Chromatography) on a reversed-phase column (C 18). Temperature: 43° C.
(a) Mobile phases for the determination in the acidic range: 0.1% aqueous phosphoric acid, acetonitrile; linear gradient of 10% acetonitrile to 90% acetonitrile—the corresponding data in Table 1 are labelled ^a).
(b) Mobile phases for the determination in the neutral range: 0.01 molar aqueous phosphate buffer solution, acetonitrile, linear gradient from 10% acetonitrile to 90% acetonitrile—the corresponding data in Table 1 are labelled ^b).

[4] abbreviates: reversed-phase HPLC column (C 18), mobile-phase label not given, read-out: Log P (preparation examples).
Where [5] appears, read: reversed-phase HPLC column (C 18), labelled a): acidic range; read-out: logP).
The mark [6] stands for this setting: reversed-phase HPLC column (C 18), labelled a): acidic range, starting materials of formula (II)/(IIA), read-out: logP (Physical data, Table 2).

Where two headings read alike, the source gives them in different places.

For the molecule `CCn1ncc(C(=O)c2ccc(S(C)(=O)=O)c(OCCn3nc(C)n(C)c3=O)c2C)c1O` [Example 1, 4-{3-[2-(3′,4′-dimethyl-1′,2′,4′-1H-triazolin-5′-on-1′-yl)-ethyloxy]-2-methyl-4-methylsulphonyl-benzoyl}-1-ethyl-5-hydroxy-1H-pyrazole], the “activity against weeds, post-emergence” value in the series with weeds [1] is “strong activity”. Also, the “activity against weeds, pre-emergence” value with weeds [2] is “strong activity”. Further, the chromatographic logP in series [3] (setting [4]) came to 1.23.
`CCOc1nn(COc2c(Cl)ccc(C(=O)C3C(=O)CCCC3=O)c2Cl)c(=O)n1C` [Example 2, 2-[3-(3′-ethoxy-4′-methyl-1′,2′,4′-1H-triazolin-5′-on-1′-yl)-methoxy-2,4-dichloro-benzoyl]-1,3-cyclohexanedione]: in the series with weeds [1], the “activity against weeds, post-emergence” value is “strong activity”. In the series on weeds [2], the “activity against weeds, pre-emergence” value is given as “strong activity”. Further, in series [3] (setting [4]), the chromatographic logP amounted to 2.52.
As to `O=C1CCCC(O)=C1C(=O)c1ccc(Cl)c(OCn2ccccc2=O)c1Cl` [Example 3], in the series on weeds [1], the “activity against weeds, post-emergence” value is listed as “strong activity”. In addition, the “activity against weeds, pre-emergence” value with weeds [2] is recorded as “strong activity”. Moreover, the “logP (Physical data, Table 1)” value in series [3] is “logP = 2.04^a)”.
On to `Cc1nn(CCOc2c(Cl)ccc(C(=O)C3=C(O)CCCC3=O)c2Cl)c(=O)n1C` [Example 4], for which, in the series with weeds [1], the “activity against weeds, post-emergence” value is reported as “strong activity”. Also, the “activity against weeds, pre-emergence” value with weeds [2] is recorded as “strong activity”. In series [3], the “logP (Physical data, Table 1)” value is recorded as “logP = 1.92^a)”.
On to `CCn1ncc(C(=O)c2ccc(Cl)c(OCCn3nc(C)n(C)c3=O)c2Cl)c1O` [Example 5], for which the “activity against weeds, post-emergence” value with weeds [1] is given as “strong activity”. For the same molecule, the “activity against weeds, pre-emergence” value in the series with weeds [2] is “strong activity”. Further, the “logP (Physical data, Table 1)” value in series [3] was “logP = 1.52^a)”.
Take `Cc1c(C(=O)C2=C(O)CCCC2=O)ccc(Cl)c1OCCn1nc(C)n(C)c1=O` [Example 6]: the “activity against weeds, post-emergence” value in the series on weeds [1] is “strong activity”. The “activity against weeds, pre-emergence” value with weeds [2] was “strong activity”. For the same molecule, in series [3], the “logP (Physical data, Table 1)” value is reported as “logP = 1.93^a)”.
As for `CCn1ncc(C(=O)c2ccc(Cl)c(OCCn3nc(C)n(C)c3=O)c2C)c1O` [Example 7], the “activity against weeds, post-emergence” value in the series on weeds [1] was “strong activity”. The “activity against weeds, pre-emergence” value in the series on weeds [2] is given as “strong activity”. In addition, the “logP (Physical data, Table 1)” value in series [3] was “logP = 1.68^a)”.
Regarding `CSc1ccc(C(=O)C2=C(O)CCCC2=O)c(Cl)c1OCCn1nc(C)n(C)c1=O` [Example 8], the “activity against weeds, post-emergence” value in the series with weeds [1] is “strong activity”. Besides, the “activity against weeds, pre-emergence” value in the series on weeds [2] is “strong activity”. The “logP (Physical data, Table 1)” value in series [3] is “logP = 1.94^a)”.
Consider `CCn1ncc(C(=O)c2ccc(SC)c(OCCn3nc(C)n(C)c3=O)c2Cl)c1O` [Example 9], for which, in the series with weeds [1], the “activity against weeds, post-emergence” value is reported as “strong activity”. In the series on weeds [2], the “activity against weeds, pre-emergence” value is “strong activity”. The “logP (Physical data, Table 1)” value in series [3] is recorded as “logP = 1.58^a)”.
Turning to `CSc1ccc(C(=O)C2=C(O)CCCC2=O)c(C)c1OCCn1nc(C)n(C)c1=O` [Example 10], the “activity against weeds, post-emergence” value in the series on weeds [1] is “strong activity”. Further, the “activity against weeds, pre-emergence” value in the series with weeds [2] is reported as “strong activity”. For the same molecule, in series [3], the “logP (Physical data, Table 1)” value is “logP = 1.91^a)”.
For the molecule `Cc1nn(CCOc2c(S(C)(=O)=O)ccc(C(=O)C3=C(O)CCCC3=O)c2Cl)c(=O)n1C` [Example 11], the “activity against weeds, post-emergence” value with weeds [1] is “strong activity”. In the series with weeds [2], the “activity against weeds, pre-emergence” value was “strong activity”. Besides, in series [3], the “logP (Physical data, Table 1)” value is listed as “logP = 1.65^a)”.
For the molecule `CSc1nn(COc2c(Cl)ccc(C(=O)C3=C(O)CCCC3=O)c2Cl)c(=O)n1C` [Example 13], the “activity against weeds, post-emergence” value in the series with weeds [1] is “strong activity”. Moreover, the “logP (Physical data, Table 1)” value in series [3] is “logP = 2.44^a)”.
In the case of `CCOc1nn(COc2c(Cl)ccc(C(=O)O)c2Cl)c(=O)n1C` [II-8, 3-(3′-ethoxy-4′-methyl-1′,2′,4′-1H-triazolin-5′-on-1′-yl)-methoxy-2,4-dichloro-benzoic acid], the chromatographic logP in series [3] (setting [4]) came out at 1.74.
Turning to `CCOC(=O)c1ccc(Cl)c(OCCn2nc(SC)n(C)c2=O)c1Cl` [II-35, ethyl 2,4-dichloro-3-[2-(3-methylthio-4-methyl-5-oxo-1,2,4-triazolin-1-yl)-ethoxy]-benzoate], the chromatographic logP in series [3] (setting [5]) and in series [3] (setting [6]) was 2.66 each time.
Turning to `CCOC(=O)c1ccc(Cl)c(OC[C@@H]2CCC(=O)N2)c1Cl` [II-61, ethyl (S)-2,4-dichloro-3-[(2-oxo-pyrrolidin-5-yl)-methoxy]-benzoate], the values for the chromatographic logP in series [3] (setting [5]) and in series [3] (setting [6]) were 2.14 and 2.15, respectively.
In the case of `CCOC(=O)c1ccc(Cl)c(OCCBr)c1Cl` [ethyl 2,4-dichloro-3-(2-bromo-ethoxy)-benzoate], the chromatographic logP in series [3] (setting [5]) came to 3.98.
Regarding `COC(=O)c1ccc(Cl)c(OCCCl)c1C` [methyl 4-chloro-3-(2-chloro-ethoxy)-2-methyl-benzoate], the chromatographic logP in series [3] (setting [4]) was found to be 3.52.
Turning to `COC(=O)c1ccc(Cl)c(O)c1C` [methyl 4-chloro-3-hydroxy-2-methyl-benzoate], in series [3] (setting [4]), the chromatographic logP amounted to 2.14.

The record behind these values is patent US6864219B2, “Substituted aryl ketones” (Bayer Aktiengesellschaft, priority 2000, dated 2005).
